Assay results published in patent US20040053872A1, “New sequences” (priority 2000, published 2004).
Read-outs that look alike come from different tables or passages of the source. Strand notation (5' to 3'): a small letter for the sugar, then the base; units joined by * are phosphorothioate-linked, units joined directly phosphodiester-linked; [ ] holds rarer units or linkages, { } end groups; capitals alone tell only the bases. r = 2'-OH (RNA)

Legend:
[1] = molecular target: T1, recombinant HIV-1 RT K103N/E478Q (Human immunodeficiency virus type 1 group M subtype B, UniProt P03366, E1077Q/K702N); test: RT assay: inhibition of RNA dependent DNA polymerisation (modified Lenti RT assay); format: biochemical; conditions: read-out: IC50 of indicated inhibitor in RT assay
T1 construct: performed by recombinant HIV-1 RT:s with defined
Protocol: (§1) The flourimetric RT assay (Cavidi® Lenti RT activity kit), available from Cavidi Tech, Uppsala, Sweden, was used for the determination of RT activity. In short, poly(rA) covalently bound to the wells of a 96 well microtiter plate serves as template for the incorporation of 5-bromodeoxyuridine 5′-triphosphate (BrdUTP) during the reverse transcription step at 33° C. The amount of bromodeoxyuridine monophosphate (BrdUMP) incorporated into DNA is detected with an alkaline phosphatase (Ap) conjugated, anti-BrdU monoclonal antibody. An Ap substrate, 4-methylumbelliferyl phosphate, is finally used for fluorimetric product detection.
(§2) (i) Protocol for determination of inhibition of RNA dependent DNA polymerisation: The inhibition studies were performed in a modified Lenti RT assay. […] The enzyme reaction was initiated by addition of 100 μl aliquots of the enzyme/inhibitor mixture to each well of a microtiter plate containing 100 μl RT reaction mixture per well. The polymerase reaction was allowed to proceed for 3 hours at 33° C., whereupon the reaction was terminated by a wash of the plate. […] The amount of RT used was standardised to an activity corresponding to 90-130 pg (7-10×10^−16 mol) reference HIV-1 RT per well
(§3) The capacity of the indicated substances to inhibit the enzymes in a panel of recombinant HIV 1 subtype B RTs was studied according to “Protocol for determination of inhibition of RNA dependent DNA polymerisation” (protocol (i) above). The final nucleotide substrate (BrdUTP) concentration was 0.35 μM, and the primer (odT22) amount was 0.03 ng per well.

[2] = molecular target: T2, recombinant HIV-1 RT L100I (Human immunodeficiency virus type 1 group M subtype B, UniProt P03366, L699I); test: as above; format: biochemical; conditions: read-out: IC50 of indicated inhibitor in RT assay
T2 construct: performed by recombinant HIV-1 RT:s with defined
Protocol: as §1, §2, §3

[3] = molecular target: T3, recombinant HIV-1 RT T215Y (Human immunodeficiency virus type 1 group M subtype B, UniProt P03366, T814Y); test: as above; format: biochemical; conditions: read-out: IC50 of indicated inhibitor in RT assay
T3 construct: performed by recombinant HIV-1 RT:s with defined
Protocol: as §1, §2, §3

[4] = molecular target: T4, recombinant HIV-1 RT L100I/K103N (Human immunodeficiency virus type 1 group M subtype B, UniProt P03366, K702N/L699I); test: as above; format: biochemical; conditions: enzyme/inhibitor preincubated 30 minutes at 33° C., BrdUTP 0.35 μM, odT22 0.03 ng per well, 3 hours, read-out: IC50 of indicated inhibitor in RT assay
T4 construct: performed by recombinant HIV-1 RT:s with defined
Protocol: as §1
(§4) (i) Protocol for determination of inhibition of RNA dependent DNA polymerisation: The inhibition studies were performed in a modified Lenti RT assay. The inhibitors were serially diluted in five steps, whereupon enzyme dilution was added and the enzyme/inhibitor mixtures were incubated for 30 minutes at 33° C. The enzyme reaction was initiated by addition of 100 μl aliquots of the enzyme/inhibitor mixture to each well of a microtiter plate containing 100 μl RT reaction mixture per well. The polymerase reaction was allowed to proceed for 3 hours at 33° C., whereupon the reaction was terminated by a wash of the plate. […] The amount of RT used was standardised to an activity corresponding to 90-130 pg (7-10×10^−16 mol) reference HIV-1 RT per well […]

[5] = molecular target: T5, recombinant HIV-1 RT E478Q (Human immunodeficiency virus type 1 group M subtype B, UniProt P03366, E1077Q); conditions: binding 90 min at 33° C.
T5 construct: performed by recombinant HIV-1 RT:s with defined
Protocol: (iii) Protocol for RT binding inhibition (BIC) assay: The study was performed in a modified DNA polymerase assay. The inhibitors were serially diluted in five steps, enzyme dilution was added and the enzyme/inhibitor mixtures were incubated for 30 minutes at 33° C. Aliquots of the enzyme/inhibitor mixture were transferred to each well of a microtiter plate containing either immobilised primer, or primer/template. The enzyme was allowed to bind to the immobilised polymer for 90 min at 33° C. The amount of RT used was standardised to an activity corresponding to 40-60 pg (3.3-5.0×10^−16 mol) reference HIV-1 RT per well. The plates were then washed to remove unbound enzyme whereupon the amount of bound enzyme was determined by addition of the appropriate reaction solution for polymerisation (i e a reaction solution devoid of primer for studies of primer binding and a reaction solution devoid of both primer and template for studies of binding to primed template). The polymerase reaction was allowed to proceed for 3 hours at 33° C., whereupon the reaction was terminated by a wash of the plate.
The capacity of the indicated substances to inhibit the binding to primer or to primed DNA template of a panel of recombinant HIV 1 subtype B RTs was studied according to “Protocol for RT binding inhibition (BIC) assay” (protocol (iii) above).

[6] = system: panel of recombinant HIV 1 subtype B RTs; test: DNAp assay: inhibition of second strand DNA synthesis, whole RT panel; format: biochemical; conditions: all RTs of the panel; summary of table 2; read-out: IC50, range over all RTs studied (second strand DNA synthesis)
Excerpt: The flourimetric DNA-polymerase assay used is available from Cavidi Tech AB, Uppsala, Sweden. It is based on a short DNA primer analogous to a part of the tRNA^Lys3 sequence. The template is a single stranded deoxynucleotide template with part of the sequence complementary to the primer. The enzyme reaction is dependent on all four deoxynucleotide bases. The thymidine triphosphate is, however, replaced by BrdUTP. The amount of BrdUMP incorporated into DNA during the polymerase reaction is detected with an alkaline phosphatase (Ap) conjugated anti-BrdU monoclonal antibody. An Ap substrate, 4-methylumbelliferyl phosphate, is finally used for fluorimetric product detection.
(ii) Protocol for determination of inhibition of second strand synthesis on a variable DNA template: The inhibition studies were performed in a modified DNA polymerase assay. […] The enzyme reaction was initiated by addition of 75 μl aliquots of the enzyme/inhibitor mixture to each well of a microtiter plate containing 75 μl DNA polymerase reaction mixture per well.
The results, which are summarised in table 2, were rather similar to those found for inhibition of reverse transcription (table 1).

[7] = molecular target: recombinant HIV-1 RT, ref RT (HIV type B, clone BH 10) (Human immunodeficiency virus type 1 group M subtype B, UniProt P03366); test: RT assay: inhibition of RNA dependent DNA polymerisation (modified Lenti RT assay); format: biochemical; parameters: performed by recombinant HIV-1 RT:s with defined; conditions: enzyme/inhibitor preincubated 30 minutes at 33° C., BrdUTP 0.35 μM, odT22 0.03 ng per well, 3 hours, read-out: IC50 of indicated inhibitor in RT assay
Protocol: as §1, §4

[8] = RT and inhibitor added directly to the assay mixture without preincubation
[9] = enzyme/inhibitor preincubated 30 minutes at 33° C., BrdUTP 0.35 μM, odT22 0.03 ng per well, 3 hours
[10] = immobilised primer, read-out: Inhibition of binding to primer (BIC50)
[11] = immobilised primer/template, read-out: Inhibition of binding to template/primer (BIC50)

Substance	IC50 [1, 8] [nM]	IC50 [1, 9] [nM]	IC50 [2, 8] [nM]	IC50 [2, 9] [nM]	IC50 [3, 8] [nM]	IC50 [3, 9] [nM]	IC50 [4] [nM]	IC50 [5, 10] [nM]	IC50 [5, 11] [nM]	IC50 [6] [nM]	IC50 [7] [nM]
substance 199: 35-mer RNA molecule having the sequence set out in SEQ ID NO:5; similar to SEQ ID NO:4 with some naturally occurring nucleotide derivatives (GCUCAGNCGGNAGAGCANCAGACUUUUAANCUGAN; RNA, backbone, methylation of C and the base at N not given here; naturally occurring modified nucleosides at n positions)	9.8	10	7.4	10	9.3	11	12	7	14	36 to 51	6.6
substance 198: 15-mer RNA phosphorothioate with the base sequence of tRNALys3 anticodon stem and loop, SEQ ID NO:7 (rC*rA*rG*rA*rC*rU*rU*rU*rU*rA*rA*rU*rC*rU*rG) [reference compound]	–	1100	–	450	–	340	900	> 1000	> 1000	550 to 1000	470
